Experimental data reported in patent US20200093786A1, “S[…] OF CANNABIS FOR TREATING MULTIPLE MYELOMA” (One World Cannabis LTD, priority 2014, published 2020).
Read-outs that look alike come from different tables or passages of the source.

Legend:
[1] = system: CD138+ cells from myeloma patients; assay: XTT cell viability and combination index, CD138+ cells from bone marrow aspirate of MM patients (Example 8); format: cell-based, human; settings: for survival of MM cells (in words): CD138+ patient cells, each of the patients tested, concentration dependent manner, FIG. 4; for IC50: Homo sapiens, read-out: dose that caused 50% of MM cell death (IC50); for sensitivity of the patient's cells / more effective combination (in words): CD138+ cells, 48 hours
Protocol: This conversion only occurs in viable cells.
Peripheral blood samples from MM patients and healthy donors are processed by Ficoll density gradient centrifugation to isolate peripheral blood mononuclear cells (PBMCs). […] For co-culture assays MM cells are stained with CFSE, cultured in the presence of HS-5 human stroma cell line, treated with the drugs and their viability is evaluated by counterstained with PI and cell viability evaluation by flow cytometer analysis.
XTT assay was performed to assess cell viability. Each treatment was performed in triplicate and presented as mean±SE.
Combination Index (CI) value <1, =1, >1 indicates synergism, additive effect, and antagonism, respectively. Pat 1, 2, 3 indicate the patient number.

[2] = system: RPMI-MR20 (mitoxantrone-resistant cells); assay: XTT cell viability, mitoxantrone-resistant MM cells (Example 9); format: cell-based; settings: RPMI-MR20, 48 hours, concentration dependent manner, FIG. 5
Protocol: (§1) RPMI-MR20, RPMI-LR5 and RPMI-Dox40 were cultured during 48 hours with CBD (FIG. 5A), THC (FIG. 5B), CBD:THC 1:1 (FIG. 5C), CBD:THC 1:5 (FIG. 5D) and CBD:THC 5:1 (FIG. 5E). XTT assay was performed to assess cell viability.

[3] = system: RPMI-LR5 (LEN-resistant cells); assay: XTT cell viability, LEN-resistant MM cells (Example 9); format: cell-based; settings: RPMI-LR5, 48 hours, concentration dependent manner, FIG. 5
Protocol: as §1

[4] = system: RPMI-Dox40 (DOXO-resistant cells); assay: XTT cell viability, DOXO-resistant MM cells (Example 9); format: cell-based; settings: RPMI-Dox40, 48 hours, concentration dependent manner, FIG. 5
Protocol: as §1

MM cells = settings: CBD by itself or in synergy with bortezomib; reference [8]; cited from earlier work

Question: For C=C(C)[C@@H]1CCC(C)=C[C@H]1c1c(O)cc(CCCCC)cc1O [CBD, Cannabidiol], which “survival of MM cells (in words)” value [1] is on record?
Answer: Its value is “decreased survival”.

Question: And the IC50 ([1]; CD138+ cells of patients 1 to 3, 48 hours, FIG. 4D)?
Answer: Its IC50 is 6.7 to 12.5 µM.

Question: And the “sensitivity of the patient's cells / more effective combination (in words)” value ([1]; Patient 1 (SM, no treatment))?
Answer: The value was “less sensitive to CBD than to THC”.

Question: What about the “sensitivity of the patient's cells / more effective combination (in words)” value ([1]; Patient 2 (VTD)) of the same compound?
Answer: The value was “slightly more sensitive to CBD than to THC”.

Question: What about the “survival of MM cells (in words)” value [2] of the same compound?
Answer: The value was “decreased survival”.

Question: What about the “survival of MM cells (in words)” value [3] of the same compound?
Answer: The value was “decreased survival”.

Question: What about the “survival of MM cells (in words)” value [4] of the same compound?
Answer: Its value is “decreased survival”.

Question: What about the “growth of MM cells (in words)” value (MM cells) of the same compound?
Answer: Its value is “strongly inhibited growth”.

Question: For CCCCCc1cc(O)c2c(c1)OC(C)(C)[C@@H]1CCC(C)=C[C@@H]21 [THC, Tetrahydrocannabinol], which “survival of MM cells (in words)” value [1] is on record?
Answer: Its value is “decreased survival”.

Question: What about the IC50 ([1]; 48 h) of the same compound?
Answer: The IC50 was 6 to 35 µM.

Question: And the “sensitivity of the patient's cells / more effective combination (in words)” value ([1]; Patient 3 (VCD))?
Answer: Its value is “less sensitive to THC than to CBD”.

Question: And the “survival of MM cells (in words)” value [2]?
Answer: The value was “decreased survival”.

Question: What about the “survival of MM cells (in words)” value [3] of the same compound?
Answer: The value was “decreased survival”.

Question: What about the “survival of MM cells (in words)” value [4] of the same compound?
Answer: The value was “decreased survival”.
